Laboratory results as given in the NIST ThermoML archive (doi:10.1016/j.jct.2012.11.027).
Numbers after ± are expanded uncertainties.

Assay: xn = mol fraction of the nth substance listed
Conditions: 101 kPa, Liquid, Linear variable-path acoustic interferometer

C=CC(=O)OC [methyl propenoate] + CCCCCCO
speed of sound [m/s]
Conditions	288.15 K	293.15 K	298.15 K	303.15 K	308.15 K	313.15 K	318.15 K
x1 = 0.077	1325.5 ± 1.9	1306.4 ± 1.9	1290.5 ± 1.9	1272 ± 1.9	1256.5 ± 1.9	1236.3 ± 1.8	1216.5 ± 1.8
x1 = 0.1542	1311.1 ± 1.9	1291.6 ± 1.9	1275.3 ± 1.9	1256.1 ± 1.9	1240.1 ± 1.8	1219.7 ± 1.8	1199.7 ± 1.8
x1 = 0.2299	1297.1 ± 1.9	1277.5 ± 1.9	1260.7 ± 1.9	1241.8 ± 1.8	1225.1 ± 1.8	1204.8 ± 1.8	1185.1 ± 1.8
x1 = 0.3057	1284.1 ± 1.9	1264.4 ± 1.9	1247.4 ± 1.8	1228.5 ± 1.8	1211.6 ± 1.8	1191.6 ± 1.8	1171.8 ± 1.8
x1 = 0.3834	1272 ± 1.9	1252.3 ± 1.8	1235.1 ± 1.8	1216.4 ± 1.8	1199.1 ± 1.8	1179.4 ± 1.8	1159.6 ± 1.8
x1 = 0.4612	1261.7 ± 1.9	1242 ± 1.8	1224.5 ± 1.8	1205.6 ± 1.8	1187.9 ± 1.8	1168.1 ± 1.8	1148.2 ± 1.7
x1 = 0.534	1253.5 ± 1.8	1233.6 ± 1.8	1215.9 ± 1.8	1196.7 ± 1.8	1178.5 ± 1.8	1158.6 ± 1.8	1138.4 ± 1.7
x1 = 0.6068	1246.6 ± 1.8	1226.4 ± 1.8	1208.2 ± 1.8	1188.7 ± 1.8	1169.8 ± 1.8	1149.7 ± 1.7	1129.3 ± 1.7
x1 = 0.672	1241.3 ± 1.8	1220.8 ± 1.8	1202.2 ± 1.8	1182.4 ± 1.8	1162.8 ± 1.8	1142.4 ± 1.7	1121.7 ± 1.7
x1 = 0.737	1237.3 ± 1.8	1216.6 ± 1.8	1197.5 ± 1.8	1177.4 ± 1.8	1157 ± 1.7	1136.3 ± 1.7	1115.2 ± 1.7
x1 = 0.8046	1233.9 ± 1.8	1212.9 ± 1.8	1193.4 ± 1.8	1172.8 ± 1.8	1151.6 ± 1.7	1130.6 ± 1.7	1109.1 ± 1.7
x1 = 0.8722	1231.2 ± 1.8	1209.8 ± 1.8	1189.8 ± 1.8	1168.7 ± 1.8	1146.7 ± 1.7	1125.4 ± 1.7	1103.5 ± 1.7
x1 = 0.9361	1229.1 ± 1.8	1207.4 ± 1.8	1186.7 ± 1.8	1165.4 ± 1.8	1142.6 ± 1.7	1121.2 ± 1.7	1099.4 ± 1.7
x1 = 1	1226.6 ± 1.8	1204.6 ± 1.8	1183.6 ± 1.8	1162.2 ± 1.7	1139.1 ± 1.7	1117.8 ± 1.7	1095.7 ± 1.7

C=CC(=O)OC [methyl propenoate] + CCCCCCCCO
speed of sound [m/s]
Conditions	288.15 K	293.15 K	298.15 K	303.15 K	308.15 K	313.15 K	318.15 K
x1 = 0.077	1371.5 ± 2	1352.2 ± 2	1331.5 ± 2	1310.8 ± 1.9	1292.2 ± 1.9	1274.2 ± 1.9	1256.8 ± 1.9
x1 = 0.1554	1352.2 ± 2	1331.8 ± 2	1311.5 ± 1.9	1290.9 ± 1.9	1271.8 ± 1.9	1253.4 ± 1.9	1235.1 ± 1.9
x1 = 0.2304	1333.7 ± 2	1313.6 ± 1.9	1293.4 ± 1.9	1273.1 ± 1.9	1253.6 ± 1.9	1234.9 ± 1.9	1216.4 ± 1.8
x1 = 0.3053	1316.3 ± 1.9	1296.3 ± 1.9	1276 ± 1.9	1255.8 ± 1.9	1236 ± 1.9	1217.5 ± 1.8	1198.9 ± 1.8
x1 = 0.383	1299.9 ± 1.9	1280 ± 1.9	1259.7 ± 1.9	1239.6 ± 1.9	1219.7 ± 1.8	1200.9 ± 1.8	1182.4 ± 1.8
x1 = 0.4603	1285 ± 1.9	1265.1 ± 1.9	1244.7 ± 1.9	1224.5 ± 1.8	1204.5 ± 1.8	1185.9 ± 1.8	1167.5 ± 1.8
x1 = 0.5321	1272.6 ± 1.9	1252.5 ± 1.9	1232.1 ± 1.8	1212.1 ± 1.8	1192.1 ± 1.8	1173.4 ± 1.8	1154.8 ± 1.8
x1 = 0.6038	1262.4 ± 1.9	1242 ± 1.8	1221.6 ± 1.8	1201.3 ± 1.8	1181.1 ± 1.8	1162.1 ± 1.8	1143.1 ± 1.7
x1 = 0.6724	1253.7 ± 1.9	1233.3 ± 1.8	1212.9 ± 1.8	1192.3 ± 1.8	1171.7 ± 1.8	1152.5 ± 1.8	1132.8 ± 1.7
x1 = 0.741	1246.5 ± 1.8	1225.8 ± 1.8	1205.4 ± 1.8	1184.7 ± 1.8	1163.6 ± 1.8	1143.8 ± 1.7	1123.6 ± 1.7
x1 = 0.8052	1241.4 ± 1.8	1220.1 ± 1.8	1199.4 ± 1.8	1178.5 ± 1.8	1156.7 ± 1.8	1136.5 ± 1.7	1115.7 ± 1.7
x1 = 0.8698	1236.3 ± 1.8	1214.7 ± 1.8	1193.7 ± 1.8	1172.5 ± 1.8	1150.2 ± 1.7	1129.6 ± 1.7	1108.3 ± 1.7
x1 = 0.935	1231.8 ± 1.8	1209.6 ± 1.8	1188.3 ± 1.8	1166.8 ± 1.8	1144.2 ± 1.7	1123.1 ± 1.7	1101.5 ± 1.7
x1 = 1	1226.6 ± 1.8	1204.6 ± 1.8	1183.6 ± 1.8	1162.2 ± 1.7	1139.1 ± 1.7	1117.8 ± 1.7	1095.7 ± 1.7

C=CC(=O)OC [methyl propenoate] + CCCCO
speed of sound [m/s]
Conditions	288.15 K	293.15 K	298.15 K	303.15 K	308.15 K	313.15 K	318.15 K
x1 = 0.0777	1271.2 ± 1.9	1250.8 ± 1.9	1230.5 ± 1.8	1212.8 ± 1.8	1193.9 ± 1.8	1174.9 ± 1.8	1155 ± 1.8
x1 = 0.1555	1261.3 ± 1.9	1240.6 ± 1.8	1220.1 ± 1.8	1202.2 ± 1.8	1182.9 ± 1.8	1163.7 ± 1.8	1143.8 ± 1.8
x1 = 0.2273	1253.3 ± 1.9	1232.6 ± 1.8	1212.2 ± 1.8	1194.2 ± 1.8	1174.7 ± 1.8	1155.5 ± 1.8	1135.6 ± 1.7
x1 = 0.299	1247 ± 1.8	1226.3 ± 1.8	1205.9 ± 1.8	1187.7 ± 1.8	1167.9 ± 1.8	1148.7 ± 1.8	1128.7 ± 1.7
x1 = 0.3791	1241.3 ± 1.8	1220.5 ± 1.8	1200.2 ± 1.8	1181.7 ± 1.8	1161.6 ± 1.8	1142.2 ± 1.7	1122.1 ± 1.7
x1 = 0.4593	1236.9 ± 1.8	1216.1 ± 1.8	1195.7 ± 1.8	1176.8 ± 1.8	1156.4 ± 1.8	1136.8 ± 1.7	1116.5 ± 1.7
x1 = 0.5344	1233.9 ± 1.8	1212.8 ± 1.8	1192.4 ± 1.8	1173.1 ± 1.8	1152.4 ± 1.7	1132.5 ± 1.7	1111.9 ± 1.7
x1 = 0.6095	1231.7 ± 1.8	1210.5 ± 1.8	1189.9 ± 1.8	1170.3 ± 1.8	1149.2 ± 1.7	1128.9 ± 1.7	1108 ± 1.7
x1 = 0.6789	1230.3 ± 1.8	1208.9 ± 1.8	1188.2 ± 1.8	1168.2 ± 1.8	1146.7 ± 1.7	1126.2 ± 1.7	1104.9 ± 1.7
x1 = 0.7483	1229.2 ± 1.8	1207.7 ± 1.8	1186.9 ± 1.8	1166.6 ± 1.8	1144.6 ± 1.7	1123.8 ± 1.7	1102.3 ± 1.7
x1 = 0.8099	1228.5 ± 1.8	1206.9 ± 1.8	1186 ± 1.8	1165.4 ± 1.8	1143.1 ± 1.7	1122.1 ± 1.7	1100.4 ± 1.7
x1 = 0.8715	1228 ± 1.8	1206.2 ± 1.8	1185.3 ± 1.8	1164.4 ± 1.8	1141.7 ± 1.7	1120.6 ± 1.7	1098.6 ± 1.7
x1 = 0.9358	1227.4 ± 1.8	1205.5 ± 1.8	1184.5 ± 1.8	1163.4 ± 1.7	1140.4 ± 1.7	1119 ± 1.7	1096.9 ± 1.7
x1 = 1	1226.6 ± 1.8	1204.6 ± 1.8	1183.6 ± 1.8	1162.2 ± 1.7	1139.1 ± 1.7	1117.8 ± 1.7	1095.7 ± 1.7

C=CC(=O)OC [methyl propenoate] + CCCCCCCCCCO
speed of sound [m/s]
Conditions	288.15 K	293.15 K	298.15 K	303.15 K	308.15 K	313.15 K	318.15 K
x1 = 0.0762	1388.2 ± 2	1370.2 ± 2	1352.1 ± 2	1333.5 ± 2	1318.1 ± 1.9	1299.5 ± 1.9	1284 ± 1.9
x1 = 0.1523	1366.7 ± 2	1348.2 ± 2	1330.6 ± 2	1312.1 ± 1.9	1295.8 ± 1.9	1276.3 ± 1.9	1259.4 ± 1.9
x1 = 0.2225	1346.9 ± 2	1328.3 ± 1.9	1310.1 ± 1.9	1291.2 ± 1.9	1275.1 ± 1.9	1255.2 ± 1.9	1238.1 ± 1.9
x1 = 0.3073	1324.4 ± 1.9	1304.9 ± 1.9	1286.5 ± 1.9	1268.1 ± 1.9	1251.5 ± 1.9	1231.5 ± 1.9	1214.4 ± 1.8
x1 = 0.3848	1304.7 ± 1.9	1285.2 ± 1.9	1267 ± 1.9	1248.2 ± 1.9	1231.2 ± 1.8	1211.3 ± 1.8	1194.3 ± 1.8
x1 = 0.4622	1286.4 ± 1.9	1267 ± 1.9	1248.9 ± 1.9	1230 ± 1.8	1212.8 ± 1.8	1193.1 ± 1.8	1175.6 ± 1.8
x1 = 0.5356	1270.8 ± 1.9	1251.3 ± 1.9	1233 ± 1.8	1214.6 ± 1.8	1197 ± 1.8	1177.4 ± 1.8	1160 ± 1.8
x1 = 0.6092	1257.7 ± 1.9	1238.3 ± 1.8	1219.8 ± 1.8	1201.2 ± 1.8	1183 ± 1.8	1163.6 ± 1.8	1145.6 ± 1.8
x1 = 0.6768	1247.2 ± 1.8	1227.9 ± 1.8	1209.4 ± 1.8	1190.4 ± 1.8	1171.8 ± 1.8	1152.1 ± 1.8	1133.7 ± 1.7
x1 = 0.7443	1238.8 ± 1.8	1219.3 ± 1.8	1200.6 ± 1.8	1181.3 ± 1.8	1161.9 ± 1.8	1141.8 ± 1.7	1123.2 ± 1.7
x1 = 0.8089	1233.4 ± 1.8	1213.4 ± 1.8	1193.9 ± 1.8	1174.3 ± 1.8	1154.1 ± 1.7	1134 ± 1.7	1114.4 ± 1.7
x1 = 0.8736	1229.8 ± 1.8	1209.1 ± 1.8	1189.2 ± 1.8	1169.1 ± 1.8	1147.8 ± 1.7	1127.2 ± 1.7	1106.9 ± 1.7
x1 = 0.9412	1227.4 ± 1.8	1206.1 ± 1.8	1185.6 ± 1.8	1164.6 ± 1.8	1142.5 ± 1.7	1121.4 ± 1.7	1100.4 ± 1.7
x1 = 1	1226.6 ± 1.8	1204.6 ± 1.8	1183.6 ± 1.8	1162.2 ± 1.7	1139.1 ± 1.7	1117.8 ± 1.7	1095.7 ± 1.7
